The test system of data set [1] is normal human dermal fibroblasts (NHDF) cells. Kind of data set: Fibroblast cytotoxicity (CellTiter-Glo). Type of data set: cell-based. Particulars: 10 µM. How it is done: PrimaPure normal human dermal fibroblasts (NHDF) cells (Genlatis PH10605A) were cultured and passaged in fibroblast growth medium (Genlatis PM116500) according to the manufacturer’s protocol. NHDF cells (1 × 10^3 per well) were plated in a 384-well plate in cell culture medium. The cells were incubated with each compound of interest at 10 μM concentration for 72 h at 37°C and 5% CO2. Following treatment, CellTiter-Glo (Promega) reagent was used to assay ATP-dependent luminescence and thus provide a measure of cell viability. […] For cytotoxicity dose-response curves (Fig. 4C and Fig. 5C), compounds were titrated from 80 μM to 0.5 μM in duplicates.
Background: In ATP-based viability assays light output follows the ATP content of the culture.

The subject of data set [2] is Cryptococcus yeast (CHY3833 and CHY3836). The experiment in a line: Yeast replication secondary screen (OD600). Type of data set: cell-based, Cryptococcus neoformans serotype D (deneoformans). Particulars: 10 μM, 12 h at 30°C. How it is done:
(ii) Yeast replication. CHY3833 and CHY3836 were each grown in YPD liquid overnight at 30°C to saturation and then resuspended in 0.5× YPD at an OD600 of 0.005. Strains were aliquoted into 384-well plates with inhibitors and grown for 12 h at 30°C at […] before OD600 readings were taken. Compounds that caused a >10% decrease in growth were considered yeast growth inhibitors.

Each structure is given as a SMILES string.

As for `Cc1ccc(C)c(CSc2nc3ccccc3[nH]2)c1` [compound 899259], the “Cytotoxicity: Relative Cell Viability (% of Negative Control)” value in data set [1] was 84.5 % of Negative Control. In data set [2], the “Yeast Inhibition: % Inhibition” value amounted to 45.3%. The corresponding values for `Cc1ccc2cc(CCC#N)c(Cl)nc2c1` [compound 4736829] are 96.3 % of Negative Control and 62.6%. In the case of `O=C1C(NS(=O)(=O)c2ccccc2)=C/C(=N\S(=O)(=O)c2ccc(F)cc2)c2ccccc21` [compound 16805904], in data set [1], the “Cytotoxicity: Relative Cell Viability (% of Negative Control)” value is on record as 89.3 % of Negative Control. Also, in data set [2], the “Yeast Inhibition: % Inhibition” value was -24.2%. In the case of `CC1CCN(C(=O)COc2ccc(-c3ccccc3)cc2)CC1` [compound 717711], the “Cytotoxicity: Relative Cell Viability (% of Negative Control)” value in data set [1] is 90.0 % of Negative Control. The “Yeast Inhibition: % Inhibition” value in data set [2] is listed as 28.9%. For the compound `Nc1c(-c2ccccc2)sc2nc(-c3ccccc3)cc[n+]12` [compound 4458495], the “Cytotoxicity: Relative Cell Viability (% of Negative Control)” value in data set [1] is listed as 52.5 % of Negative Control. Moreover, the “Yeast Inhibition: % Inhibition” value in data set [2] came to 87.8%. In the case of `Cc1ccn(-c2ccc(N3CCN(C(=O)c4ccccc4Br)CC3)nn2)n1` [compound 25667819], the “Cytotoxicity: Relative Cell Viability (% of Negative Control)” value in data set [1] is on record as 101.9 % of Negative Control. Further, the “Yeast Inhibition: % Inhibition” value in data set [2] is on record as -7.4%. Turning to `O=C(Cn1c(=O)n(Cc2cccnc2)c(=O)c2ncccc21)Nc1ccc2c(c1)OCO2` [compound 16951905], the “Cytotoxicity: Relative Cell Viability (% of Negative Control)” value in data set [1] is listed as 101.3 % of Negative Control. The “Yeast Inhibition: % Inhibition” value in data set [2] is recorded as -5.5%. As to `C=CCN(CC=C)CC(O)CN1c2ccccc2Sc2ccccc21` (stereo not shown) [compound 2896856], the “Cytotoxicity: Relative Cell Viability (% of Negative Control)” value in data set [1] is reported as 5.4 % of Negative Control. Also, in data set [2], the “Yeast Inhibition: % Inhibition” value was 43.9%. On to `O=S(=O)(NCc1csc(-c2ccccc2)n1)c1cc(Cl)ccc1Cl` [compound 7119035], for which the “Cytotoxicity: Relative Cell Viability (% of Negative Control)” value in data set [1] is listed as 89.2 % of Negative Control. Also, in data set [2], the “Yeast Inhibition: % Inhibition” value was found to be 38.8%. In the case of `Clc1ccc2nc(Nc3ccncc3)nc(-c3ccccc3)c2c1` [compound 4714160], the “Cytotoxicity: Relative Cell Viability (% of Negative Control)” value in data set [1] was 90.5 % of Negative Control. In addition, the “Yeast Inhibition: % Inhibition” value in data set [2] was 14.9%. The corresponding values for `COc1ccc(/C=C/c2nc3ccccc3[nH]2)cc1` [compound 5769808] are 14.4 % of Negative Control and 70.2%. As to `O=C(/C=C/c1cccc(F)c1)c1cccs1` [compound 7185494], in data set [1], the “Cytotoxicity: Relative Cell Viability (% of Negative Control)” value was 45.7 % of Negative Control. For the same compound, the “Yeast Inhibition: % Inhibition” value in data set [2] is 101.7%. Take `Nc1nc(-c2ccc(Oc3ccccc3)cc2)cs1` [compound 780598]: the “Cytotoxicity: Relative Cell Viability (% of Negative Control)” value in data set [1] was 97.5 % of Negative Control. Besides, in data set [2], the “Yeast Inhibition: % Inhibition” value came to 81.0%. For `O=C1/C(=C/c2ccncc2)SC(=S)N1Nc1ccccc1` [compound 1636480], the “Cytotoxicity: Relative Cell Viability (% of Negative Control)” value in data set [1] was 86.8 % of Negative Control. Besides, the “Yeast Inhibition: % Inhibition” value in data set [2] was found to be 67.7%. In the same order, the values of `Cc1cc(C(=O)NCC2Cc3ccccc3CO2)c(C)o1` (stereo not shown) [compound 91626508] are 98.3 % of Negative Control and 53.9%. As for `Cn1c(=O)c(Nc2ccc(O)cc2)c2c3c(cccc31)C(=O)c1ccccc1-2` [compound 1263311], the “Cytotoxicity: Relative Cell Viability (% of Negative Control)” value in data set [1] is 86.6 % of Negative Control. For the same compound, the “Yeast Inhibition: % Inhibition” value in data set [2] is reported as -2.6%. For `CCc1ccccc1NC(=O)c1cc(C)oc1C` [compound 8839503], the “Cytotoxicity: Relative Cell Viability (% of Negative Control)” value in data set [1] is recorded as 103.5 % of Negative Control. In addition, the “Yeast Inhibition: % Inhibition” value in data set [2] was found to be 37.3%. For the compound `O=C1c2ccccc2S(=O)(=O)N1CC(O)COc1ccc(Cl)cc1Cl` (stereo not shown) [compound 2943193], the “Cytotoxicity: Relative Cell Viability (% of Negative Control)” value in data set [1] is listed as 90.5 % of Negative Control. Besides, in data set [2], the “Yeast Inhibition: % Inhibition” value is 57.4%.

Regarding `CCCC(=O)N1CCN(c2nc3c(C)c(Cl)ccc3s2)CC1` [compound 7294823], the “Cytotoxicity: Relative Cell Viability (% of Negative Control)” value in data set [1] is reported as 104.9 % of Negative Control. The “Yeast Inhibition: % Inhibition” value in data set [2] was determined as 31.5%. With `O=C(Nc1nc2c(s1)CN(C(=O)C1(c3cccs3)CCCC1)CC2)c1ccoc1` [compound 71788301], the “Cytotoxicity: Relative Cell Viability (% of Negative Control)” value in data set [1] is 91.4 % of Negative Control. The “Yeast Inhibition: % Inhibition” value in data set [2] amounted to 8.3%. For `CCCCc1nnc(NC(=O)c2cc(OC)ncn2)s1` [compound 91628556], the “Cytotoxicity: Relative Cell Viability (% of Negative Control)” value in data set [1] is given as 88.7 % of Negative Control. Further, in data set [2], the “Yeast Inhibition: % Inhibition” value is 83.1%. In the same order, the values of `O=C(CSCc1ccccc1)N1CCC(c2ccsc2)CC1` [compound 71786985] are 101.7 % of Negative Control and 11.0%. Take `O=S(=O)(NCCN1CCN(c2ccc(Cl)cc2)CC1)c1ccc(Cl)s1` [compound 42268033]: the “Cytotoxicity: Relative Cell Viability (% of Negative Control)” value in data set [1] is 102.4 % of Negative Control. In addition, in data set [2], the “Yeast Inhibition: % Inhibition” value was found to be 19.1%. As to `COc1ccc(CCN2C(=O)C=CC2=O)cc1OC` [compound 282938], in data set [1], the “Cytotoxicity: Relative Cell Viability (% of Negative Control)” value is on record as 24.9 % of Negative Control. Also, in data set [2], the “Yeast Inhibition: % Inhibition” value was determined as 101.4%.

Consider `ClC(Cl)(c1nnnn1-c1ccccc1)c1nnnn1-c1ccccc1` [compound 3090522], for which the “Cytotoxicity: Relative Cell Viability (% of Negative Control)” value in data set [1] is reported as 90.6 % of Negative Control. In addition, the “Yeast Inhibition: % Inhibition” value in data set [2] stood at 87.7%.

Regarding `O=C(CCc1ccccc1Br)N1CCC(c2cccs2)CC1` [compound 71807060], the “Cytotoxicity: Relative Cell Viability (% of Negative Control)” value in data set [1] is recorded as 100.7 % of Negative Control. The “Yeast Inhibition: % Inhibition” value in data set [2] was 5.9%.

Consider `c1nc(N2CCCCCC2)c2ccsc2n1` [compound 2238990], for which the “Cytotoxicity: Relative Cell Viability (% of Negative Control)” value in data set [1] was 79.6 % of Negative Control. Moreover, the “Yeast Inhibition: % Inhibition” value in data set [2] is 57.0%. On to `CC(=O)c1cccc(NC(=O)c2cc(Cl)sc2Cl)c1` [compound 7120750], for which, in data set [1], the “Cytotoxicity: Relative Cell Viability (% of Negative Control)” value was 79.8 % of Negative Control. The “Yeast Inhibition: % Inhibition” value in data set [2] was determined as 72.7%. As to `Cc1cc(C(=O)NCCc2nc(C3CC3)cc(C(F)(F)F)n2)c(C)o1` [compound 71797038], in data set [1], the “Cytotoxicity: Relative Cell Viability (% of Negative Control)” value is listed as 94.6 % of Negative Control. In addition, in data set [2], the “Yeast Inhibition: % Inhibition” value was 47.0%. With `CC(C)(C)c1c[se]c(=S)s1` [compound 3797566], the “Cytotoxicity: Relative Cell Viability (% of Negative Control)” value in data set [1] is listed as 98.5 % of Negative Control. Moreover, the “Yeast Inhibition: % Inhibition” value in data set [2] worked out at 91.9%. Regarding `CC(C)(C)NCC(O)COc1ccc(C23CC4CC(CC(C4)C2)C3)cc1` (stereo not shown) [compound 2769740], the “Cytotoxicity: Relative Cell Viability (% of Negative Control)” value in data set [1] was 2.7 % of Negative Control. The “Yeast Inhibition: % Inhibition” value in data set [2] was found to be 101.5%. In the same order, the values of `Cc1ccccc1OCCn1cnc2ccccc21` [compound 749608] are 96.0 % of Negative Control and 75.5%. As for `Clc1ccc(OCCSCc2nc3ccccc3[nH]2)cc1` [compound 1589789], the “Cytotoxicity: Relative Cell Viability (% of Negative Control)” value in data set [1] is 74.0 % of Negative Control. Besides, in data set [2], the “Yeast Inhibition: % Inhibition” value is 79.6%. Regarding `O=C(C1CCC1)N(Cc1cccnc1)c1nc2ccc(Cl)cc2s1` [compound 43967671], in data set [1], the “Cytotoxicity: Relative Cell Viability (% of Negative Control)” value is 97.1 % of Negative Control. Besides, in data set [2], the “Yeast Inhibition: % Inhibition” value came to 78.9%.

Take `O=C(COc1ccc2ccccc2c1)NCC1COC2(CCCC2)O1` (stereo not shown) [compound 16823609]: in data set [1], the “Cytotoxicity: Relative Cell Viability (% of Negative Control)” value was 99.9 % of Negative Control. Further, the “Yeast Inhibition: % Inhibition” value in data set [2] was found to be 2.4%. The corresponding values for `Cc1cc(-c2nnc(NC(=O)c3ccc(C(=O)c4ccccc4)cc3)o2)nn1C` [compound 25283140] are 79.9 % of Negative Control and -15.6%. As to `COc1ccc(-c2noc(-c3cc(-c4cc(C)ccc4C)n[nH]3)n2)cc1OC` [compound 27375613], in data set [1], the “Cytotoxicity: Relative Cell Viability (% of Negative Control)” value is 94.0 % of Negative Control. In addition, the “Yeast Inhibition: % Inhibition” value in data set [2] is 9.4%. Take `Oc1ccc2cc(Br)ccc2c1` [compound 27144]: the “Cytotoxicity: Relative Cell Viability (% of Negative Control)” value in data set [1] is given as 31.7 % of Negative Control. For the same compound, the “Yeast Inhibition: % Inhibition” value in data set [2] turned out to be 100.0%. Regarding `COc1ccc(CCNC(=O)c2c(O)nc3ccccn3c2=O)cc1OC` [compound 16010290], the “Cytotoxicity: Relative Cell Viability (% of Negative Control)” value in data set [1] is on record as 103.5 % of Negative Control. Moreover, in data set [2], the “Yeast Inhibition: % Inhibition” value is recorded as -0.7%. In the case of `CCc1ccc2nc(N)sc2c1` [compound 773093], the “Cytotoxicity: Relative Cell Viability (% of Negative Control)” value in data set [1] is given as 62.5 % of Negative Control. Also, the “Yeast Inhibition: % Inhibition” value in data set [2] was found to be 73.1%. Turning to `O=C(Nc1ccc2sccc2c1)c1ccc([N+](=O)[O-])s1` [compound 3629287], in data set [1], the “Cytotoxicity: Relative Cell Viability (% of Negative Control)” value is 19.4 % of Negative Control. Besides, in data set [2], the “Yeast Inhibition: % Inhibition” value came out at 97.9%. For the compound `COc1ccc(NC(=O)CN2CCN(c3c(C)cccc3C)CC2)cc1` [compound 2200363], the “Cytotoxicity: Relative Cell Viability (% of Negative Control)” value in data set [1] was 71.8 % of Negative Control. The “Yeast Inhibition: % Inhibition” value in data set [2] is recorded as 64.6%. Take `Nc1nc(-c2ccccn2)cs1` [compound 1092459]: in data set [2], the “Yeast Inhibition: % Inhibition” value amounted to 100.0%.

Values taken from article PMC8406298, “Discovery of Fungus-Specific Targets and Inhibitors Using Chemical Phenotyping of Pathogenic Spore Germination” (mBio, 2021).
